Values quoted from earlier work as cited in patent US20200206223A1, “LIQUID DOSAGE FORMS OF IMATINIB” (FTF PHARMA PRIVATE LIMITED, priority 2017, published 2020).

Share of the AUC for Imatinib mesylate (main circulating active metabolite): about 15%
Elimination half-life (orally administered imatinib mesylate): ~40 h
Structure (SMILES): Cc1ccc(NC(=O)c2ccc(CN3CCNCC3)cc2)cc1Nc1nccc(-c2cccnc2)n1 [N-desmethyl derivative]
